# What was measured:
# [1] = test system: Klebsiella pneumoniae meropenem-resistant strain; experiment: resistance/sensitivity test directly on MALDI-TOF MS sample support, meropenem-resistant strain; type: cell-based
# Description: (§1) The antibiotic (for example an antibiotic solution in a liquid nutrient medium) can be mixed with a microorganism suspension either in a cultivation vessel or directly on a spot of a MALDI-TOF MS support 12 (hatched droplet 14*). In addition, this is generally accompanied by a growth control on a different section of the MALDI-TOF MS support, i.e. a cultivation of the microorganism suspension in a nutrient medium without the addition of an antibiotic (unhatched droplet 14). It is preferable for a very small quantity of the suspension to be applied to the spots; for example 1-10 microliters. The sensitivity test thus takes place in microdroplets 14, 14*, preferably with a volume of around 4-8 microliters. The use of even smaller volumes is also possible in principle, for example in the form of nanodroplets. The initial microorganism concentration in the droplets 14, 14* can be slightly below the detection limit of a conventional MALDI time-of-flight mass spectrometer with linear flight path, and thus amount to around 5×10^5 cfu per milliliter, for example (cfu—colony forming unit). FIG. 3A.
# In the example shown, the MALDI-TOF MS support 12 with the test solution is subsequently cultured in a so-called “humidity chamber” 16 in an incubator at high humidity. The purpose of the humidity chamber 16 is to prevent the droplets 14, 14* from evaporating prematurely during the incubation, and it can take the form of a box with a lid, made of plastic, for example, into which the MALDI-TOF MS support can easily be placed. […] A small quantity of liquid can be put in the humidity chamber 16, for example 0.1 to 5 milliliters of water or NaCl solution to humidify the atmosphere in the chamber 16 and thus set a high ambient humidity (nearly 100%) so that the evaporation of the droplets of nutrient medium 14, 14* themselves is prevented. FIG. 3B.
# In the droplets 14, 14*, a high concentration of the microorganisms in a small volume of liquid is rapidly achieved during incubation (as long as the growth is not inhibited by antimicrobial substances). […]
# [2] = test system: Klebsiella pneumoniae meropenem-sensitive strain; experiment: resistance/sensitivity test directly on MALDI-TOF MS sample support, meropenem-sensitive strain; type: cell-based
# Description: as §1, with “The initial microorganism concentration in the droplets 14, 14* can be slightly below the detection limit of a conventional MALDI time-of-flight mass spectrometer with linear flight path, and thus amount to around 5×10^5 cfu per milliliter, for example (cfu—colony forming unit). FIG. 3A.” left out
# In the example shown, the MALDI-TOF MS support 12 with the test solution is subsequently cultured in a so-called “humidity chamber” 16 in an incubator at high humidity. […] A small quantity of liquid can be put in the humidity chamber 16, for example 0.1 to 5 milliliters of water or NaCl solution to humidify the atmosphere in the chamber 16 and thus set a high ambient humidity (nearly 100%) so that the evaporation of the droplets of nutrient medium 14, 14* themselves is prevented. […]
# [3] = 2 micrograms per milliliter, 6 microliter droplet, four hours incubation, MALDI Biotyper evaluation
structure (smiles),measurement,setting,value
C[C@@H](O)[C@H]1C(=O)N2C(C(=O)O)=C(S[C@@H]3CN[C@H](C(=O)N(C)C)C3)[C@H](C)[C@H]12 [meropenem],bacterial growth in the presence of meropenem (specific mass signal signatures vs growth control),[1]; [3],not inhibited
same,"relative growth, median","[1]; 4 microliter droplet, measurements occasionally below threshold, FIG. 4B",greater than 0.4
same,relative growth,"[1]; droplet sizes 2, 6, 8 and 10 microliters, significant growth threshold 0.4, FIG. 4B",greater than 0.4
same,bacterial growth in the presence of meropenem (specific mass signal signatures vs growth control),[2]; [3],cannot multiply (or scarcely)
same,relative growth,"[2]; droplet sizes 2, 4, 6, 8 and 10 microliters, significant growth threshold 0.4, FIG. 4B",< 0.4

# Source: patent US12031989B2, “Preparing live microbial samples and microorganisms for subsequent mass spectrometric measurement and evaluation” (Bruker Daltonics GmbH & Co. KG, priority 2016, dated 2024)
